Consider 20 molecules from patent US12350270B2, “Antimalarial agents” (Merck Sharp & Dohme LLC, priority 2019, dated 2025).

Molecules are shown by their SMILES.

The test system of one experiment is parasites (ring stage, in human red blood cell culture). Briefly: Parasite LDH growth assay (antiparasite potency, Parasite Assay). In kind it is cell-based, Plasmodium falciparum. Particulars: 0.7% rings, 2% haematocrit, 72 hours at 37° C., LDH readout of parasite growth. The procedure:
Assessing Antiparasite Potency in a Parasite LDH Growth Assay (Parasite Assay)
The parasite stock was maintained at 4% haematocrit in RPMI-Hepes media buffered with sodium bicarbonate and supplemented with 5% heat inactivated human serum and 0.5% albumax.
On the day of assay set up, a blood smear of the parasite culture was Giemsa stained and counted. The parasitemia was adjusted to 0.7% rings and the haematocrit was diluted to 2% in RPMI-Hepes media buffered with sodium bicarbonate and supplemented with 5% heat inactivated human serum and 0.5% albumax. 30 ul of diluted parasites are then added into 10 ul of media+compound in pre-prepared Greiner TC assay plates. Parasite assay plates were placed in gassed humidified boxes in single layer and allowed to incubate at 37° C. for 72 hours. After 72 hours growth, assay plates are sealed with parafilm and frozen flat, in single file at −80° C. overnight. On the following day, assay plates are allowed to thaw at room temperature for 4 hours to which an LDH assay is performed to measure parasite growth.
As usually defined, the EC50 is the concentration giving half of the maximal effect. The low end stands for higher potency in that assay, the high end for lower potency in that assay. `CC1(C)CC(=O)N([C@@H]2CC(C)(C)Oc3ccc(C(=O)N[C@@H]4c5ccccc5OC[C@H]4O)cc32)C(=N)N1` [Example 56A, (R)-N-((3S,4R)-3-hydroxychroman-4-yl)-4-(2-imino-4,4-dimethyl-6-oxotetrahydropyrimidin-1(2H)-yl)-2,2-dimethylchromane-6-carboxamide] displayed a half-maximal effective concentration (EC50) of 26.9 nM.
The molecule `CCC1(CC)CC(=O)N([C@@H]2CCOc3ccc(C(=O)NC4c5c(OC)cccc5OCC4(C)O)cc32)C(=N)N1` (single isomer, unassigned) [Example 259D] registered a concentration giving a half-maximal response (EC50) of 10.6 nM.
Same read-out and setting: the result for `CCC1(CC)CC(=O)N(C2c3cc(C(=O)N[C@@H]4c5ccccc5C[C@H]4O)ccc3OC2(C)C)C(=N)N1` (stereo partly drawn) [Example 127B, 3-(4,4-diethyl-2-imino-6-oxo-hexahydropyrimidin-1-yl)-N-[(1R,2R)-2-hydroxyindan-1-yl]-2,2-dimethyl-3H-benzofuran-5-carboxamide] reads 222 nM; that for `CCC1(CC)CC(=O)N([C@H]2c3cc(C(=O)NC4c5ccccc5CC4(C)O)ccc3OC2(C)COC)C(=N)N1` (stereo partly drawn) [Example 77A, (2S,3S)-3-(4,4-diethyl-2-imino-6-oxotetrahydropyrimidin-1(2H)-yl)-N-(2-hydroxy-2-methyl-2,3-dihydro-1H-inden-1-yl)-2-(methoxymethyl)-2-methyl-2,3-dihydrobenzofuran-5-carboxamide], 57.1 nM; that for `CCOC(=O)C1(C)Oc2ccccc2C1NC(=O)c1ccc2c(c1)[C@H](N1C(=N)NC(CC)(CC)CC1=O)CCO2` (single isomer, unassigned) [Example 65C], 26 nM.
In turn, `CCC1(CC)CC(=O)N([C@H]2c3cc(C(=O)N[C@@H]4c5ccccc5OC(C)(C)[C@H]4O)ccc3OCC2OC)C(=N)N1` (stereo partly drawn) [Example 67A, (3R,4S)-4-(4,4-diethyl-2-imino-6-oxotetrahydropyrimidin-1(2H)-yl)-N-((3S,4R)-3-hydroxy-2,2-dimethylchroman-4-yl)-3-methoxychromane-6-carboxamide] came in with an EC50 of 170 nM.
Regarding `CCC1(CC)CC(=O)N([C@@H]2CC(COC)Oc3ccc(C(=O)N[C@H]4CC(C)(C)Oc5ccccc54)cc32)C(=N)N1` (single isomer, unassigned) [Example 16B], the EC50 amounted to 95 nM. Against the preceding molecule, the EC50 is about 1.8-fold lower.

The experiment is the same for the next values; noted with them: Plasmodium falciparum, Erythrocyte, 72 h, 0.7% rings, 2% haematocrit, 72 hours at 37° C., LDH readout of parasite growth.
Take `C[C@@H]1C[C@@H](N2C(=N)NC(C)(C)CC2=O)c2cc(C(=O)N[C@@H]3c4ccccc4C[C@@]3(C)O)ccc21` [Example 89, (1R,3R)-N-[(1R,2R)-2-hydroxy-2-methyl-indan-1-yl]-3-(2-imino-4,4-dimethyl-6-oxo-hexahydropyrimidin-1-yl)-1-methyl-indane-5-carboxamide]: the concentration for a half-maximal effect (EC50) was found to be 43.5 nM. In other words, the double-digit nanomolar range.
Turning to `CCC1(CC)CC(=O)N([C@@H]2C[C@@H](CCCCCCNC(C)=O)Oc3ccc(C(=O)N[C@H]4CC(C)(C)Oc5ccccc54)cc32)C(=N)N1` [Example 309, (2R,4R)-2-(6-acetamidohexyl)-4-(4,4-diethyl-2-imino-6-oxo-hexahydropyrimidin-l-yl)-N-[(4S)-2,2-dimethylchroman-4-yl]chromane-6-carboxamide], the EC50 turned out to be 3.2 nM.
The molecule `CCC1(CC)CC(=O)N([C@@H]2CC(C)(C)Oc3ccc(C(=O)N[C@@H]4c5ccccc5OC[C@@H]4O)cc32)C(=N)N1` [Example 36A, (R)-4-(4,4-diethyl-2-imino-6-oxotetrahydropyrimidin-1(2H)-yl)-N-((3R,4R)-3-hydroxychroman-4-yl)-2,2-dimethylchromane-6-carboxamide] showed an EC50 of 8.9 nM. This EC50 is about 2.8-fold higher than that of the molecule before.
The molecule `CCC1(CC)CC(=O)N([C@H]2c3cc(C(=O)N[C@@H]4c5ccccc5C[C@H]4O)ccc3OC[C@H]2COC)C(=N)N1` [Example 215, (3R,4R)-4-(4,4-diethyl-2-imino-6-oxo-hexahydropyrimidin-1-yl)-N-[(1R,2R)-2-hydroxyindan-1-yl]-3-(methoxymethyl)chromane-6-carboxamide] displayed an EC50 of 4.2 nM.
`CCC1(CC)CC(=O)N(C2CC(C(=O)N(C)C)Oc3ccc(C(=O)N[C@@H]4c5ccccc5C[C@@]4(C)O)cc32)C(=N)N1` (stereo partly drawn) [Example 292, 4-(4,4-diethyl-2-imino-6-oxo-hexahydropyrimidin-1-yl)-N6-[(1R,2R)-2-hydroxy-2-methyl-indan-1-yl]-N2,N2-dimethyl-chromane-2,6-dicarboxamide]: the EC50 worked out at 49.7 nM.
The molecule `CCC1(CC)CC(=O)N([C@H]2c3cc(C(=O)N[C@@H]4c5ccccc5C[C@H]4O)ccc3CC[C@@H]2OC)C(=N)N1` [Example 165, (3S,4S)-4-(4,4-diethyl-2-imino-6-oxo-hexahydropyrimidin-1-yl)-N-[(1R,2R)-2-hydroxyindan-1-yl]-3-methoxy-tetralin-6-carboxamide] yielded an EC50 of 3.4 nM.
The molecule `CCC1(CC)CC(=O)N([C@H]2c3cc(C(=O)N[C@@H]4c5ccccc5C[C@@]4(C)O)ccc3OC[C@H]2COC)C(=N)N1` [Example 235, (3R,4R)-4-(4,4-diethyl-2-imino-6-oxo-hexahydropyrimidin-1-yl)-N-[(1R,2R)-2-hydroxy-2-methyl-indan-1-yl]-3-(methoxymethyl)chromane-6-carboxamide] displayed a 50% effective concentration (EC50) of 0.7 nM.
Same read-out and setting: then `CC[C@]1(C)CC(=O)N([C@@H]2CCOc3ccc(C(=O)N[C@H]4C[C@H](COC(F)F)Oc5ccccc54)cc32)C(=N)N1` [Example 269, (4R)-N-[(2R,4S)-2-(difluoromethoxymethyl)chro-man-4-yl]-4-[(4R)-4-ethyl-2-imino-4-methyl-6-oxo-hexahydropyrimidin-1-yl]chromane-6-carboxamide], with 2.9 nM; and `CCC1(CC)CC(=O)N([C@@H]2CCOc3ccc(C(=O)N[C@@H](C)c4ccccc4OC)cc32)C(=N)N1` [Example 111, (4R)-4-(4,4-diethyl-2-imino-6-oxo-hexahydropyrimidin-1-yl)-N-[(1S)-1-(2-methoxyphenyl)ethyl]chromane-6-carboxamide], with 90 nM; and `CC1(C)CC(=O)N([C@@H]2CCS(=O)(=O)c3ccc(C(=O)N[C@@H]4c5ccccc5OC(C)(C)[C@H]4O)cc32)C(=N)N1` [Example 265, (4R)-N-[(3S,4R)-3-hydroxy-2,2-dimethyl-chroman-4-yl]-4-(2-imino-4,4-dimethyl-6-oxo-hexahydropyrimidin-1-yl)-1,1-dioxo-3,4-dihydro-2H-thiochromene-6-carboxamide], with 31.1 nM.
Molecule `CCC1(CC)CC(=O)N([C@@H]2C[C@@H](OC)c3ccc(C(=O)N[C@@H]4c5ccccc5OC(C)(C)[C@H]4O)cc32)C(=N)N1` [Example 236, (1R,3R)-3-(4,4-diethyl-2-imino-6-oxo-hexahydropyrimidin-1-yl)-N-[(3S,4R)-3-hydroxy-2,2-dimethyl-chroman-4-yl]-1-methoxy-indane-5-carboxamide] gave an EC50 of 0.9 nM.
Molecule `CCC1(CC)CC(=O)N([C@@H]2CC3(COC3)Oc3ccc(C(=O)N[C@H]4CC(C)(C)Oc5ccccc54)cc32)C(=N)N1` [Example 22A, (R)-4-(4,4-diethyl-2-imino-6-oxotetrahydropyrimidin-1(2H)-yl)-N-((S)-2,2-dimethylchroman-4-yl)spiro[chromane-2,3′-oxetane]-6-carboxamide] registered a concentration for a half-maximal effect (EC50) of 0.7 nM. The EC50 values of the last two molecules are within 1.5-fold of each other.
Molecule `CCC1(CC)CC(=O)N([C@@H]2CCCc3ccc(C(=O)N[C@@H]4c5ccccc5C[C@@]4(C)O)cc32)C(=N)N1` [Example 114, (4R)-4-(4,4-diethyl-2-imino-6-oxo-hexahydropyrimidin-1-yl)-N-[(1R,2R)-2-hydroxy-2-methyl-indan-1-yl]tetralin-6-carboxamide] had an EC50 of 1.8 nM. This EC50 is about 2.6-fold higher than that of the molecule before.
